One data set deals with T1, Protein skinhead-1 (Caenorhabditis elegans, UniProt P34707).
T1 sequence (P34707 whole entry): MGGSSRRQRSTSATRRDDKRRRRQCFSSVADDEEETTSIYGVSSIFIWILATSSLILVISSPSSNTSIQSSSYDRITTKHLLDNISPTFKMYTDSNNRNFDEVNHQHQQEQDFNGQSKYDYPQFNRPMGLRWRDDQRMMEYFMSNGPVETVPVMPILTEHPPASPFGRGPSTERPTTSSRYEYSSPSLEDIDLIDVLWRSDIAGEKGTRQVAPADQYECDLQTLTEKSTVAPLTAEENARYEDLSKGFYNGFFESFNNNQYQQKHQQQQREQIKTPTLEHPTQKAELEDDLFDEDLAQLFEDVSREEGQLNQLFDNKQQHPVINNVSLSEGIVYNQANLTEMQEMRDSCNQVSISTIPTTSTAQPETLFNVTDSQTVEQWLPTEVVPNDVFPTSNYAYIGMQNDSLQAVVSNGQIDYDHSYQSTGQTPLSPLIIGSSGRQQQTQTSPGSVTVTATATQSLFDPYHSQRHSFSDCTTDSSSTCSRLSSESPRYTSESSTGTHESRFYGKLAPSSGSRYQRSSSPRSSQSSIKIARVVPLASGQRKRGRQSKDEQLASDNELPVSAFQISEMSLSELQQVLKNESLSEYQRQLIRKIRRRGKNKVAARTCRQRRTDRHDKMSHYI
In kind it is functional.

The target in another data set is Cytochrome P450 3A4 (Homo sapiens, UniProt P08684).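 Further: CYP3A4 tested as one member of a cytochrome P450 panel screen.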
Chain of Cytochrome P450 3A4 (P08684 whole entry, the tested form may be a part): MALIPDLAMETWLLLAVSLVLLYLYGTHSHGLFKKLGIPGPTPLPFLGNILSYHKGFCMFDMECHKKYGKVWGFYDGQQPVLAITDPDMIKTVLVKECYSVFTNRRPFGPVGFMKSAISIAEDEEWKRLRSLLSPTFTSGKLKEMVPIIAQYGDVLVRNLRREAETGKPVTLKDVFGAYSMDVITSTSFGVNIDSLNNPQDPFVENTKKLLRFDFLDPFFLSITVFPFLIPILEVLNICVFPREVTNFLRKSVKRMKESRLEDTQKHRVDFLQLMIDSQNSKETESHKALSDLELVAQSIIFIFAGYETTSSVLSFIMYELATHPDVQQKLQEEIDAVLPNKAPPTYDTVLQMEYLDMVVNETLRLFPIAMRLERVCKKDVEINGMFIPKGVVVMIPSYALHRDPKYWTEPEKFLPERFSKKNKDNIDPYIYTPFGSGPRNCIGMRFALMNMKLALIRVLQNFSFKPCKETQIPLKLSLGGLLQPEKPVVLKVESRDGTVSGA
The nature of data set [1]: inhibitors of HIV Env-driven cell fusion, dose response, cherry-pick (AID 652057). In kind it is functional, cell-based.
A short description of data set [2]: CEM21 lymphoblast cell cytotoxicity, dose response, cytotoxicity control for viral fusion inhibitor project, CellTiter-Glo luminescence, cherry-picked (AID 652042).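 Further: potency for signal decrease meaning cytotoxicity.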 In kind it is functional, cell-based. On the technique in general: Cellular ATP, detected with luciferase, serves as a proxy for viable cell number.
Data set [3] in a line: ZM109 Env clade C HIV-1 fusion inhibitors, dose response, HeLa effector, CEM target cells, luciferase, cherry-pick (AID 652058). In kind it is functional, cell-based.
The nature of data set [4]: off-target signal loss in HeLa-CEM21 co-culture – HeLa F-luc CTL cells, cherry-picked, counter-screen for HIV-1 Env fusion inhibitor project, dose response (AID 652040).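 Further: potency for signal decrease marking cytotoxic or nonspecific inhibition.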 In kind it is functional, cell-based. (In general: A counterscreen serves to expose hits that act by an unwanted route or on another target.)
A short description of data set [5]: inhibitors of clade B AD8 Env fusion, dose response, cell-based, cherry-pick (AID 652062).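 Further: luciferase signal from cell-cell fusion driven by HIV-1 clade B AD8 Env; potency is for inhibitors of fusion seen as a drop in luminescence.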 In kind it is functional.
Data set [6] deals with Escherichia coli. Briefly: microbe, parasite or virus in culture.
The test system of data set [7] is Escherichia coli. Nature of the data set: microbe, parasite or virus in culture. This is another data set of the same source.
Data set [8] addresses T2, Small ubiquitin-related modifier 1 (Homo sapiens, UniProt P63165). Nature of the data set: inhibitors of SUMO1 peptide binding, dose response, biochemical, fluorescence polarization, uHTS hits (AID 624382). In kind it is functional. The conditions noted are these: read-out: IC50_Mean.
In data set [9] the target is T2, Small ubiquitin-related modifier 1. Nature of the data set: inhibitors of SUMO1 partner interactions, dose response, biochemical, FRET (AID 624383). In kind it is functional. The conditions noted are these: read-out: IC50_Mean.
A short description of data set [10]: miR-122 activators in hepatoma reporter cells, dose response, cell-based, Huh7 psiCHECK-miR122, Renilla luciferase, cherry-picked (AID 651956).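 Further: huh7 hepatoma cells stably carrying a psiCHECK-2 miR-122 sensor plasmid; renilla luciferase signal reporting endogenous miR-122 activity after 48 h compound exposure.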 In kind it is functional.
Data set [11] concerns the target T3, Sentrin-specific protease 8 (Homo sapiens, UniProt Q96LD8).
T3 sequence (Q96LD8 whole entry): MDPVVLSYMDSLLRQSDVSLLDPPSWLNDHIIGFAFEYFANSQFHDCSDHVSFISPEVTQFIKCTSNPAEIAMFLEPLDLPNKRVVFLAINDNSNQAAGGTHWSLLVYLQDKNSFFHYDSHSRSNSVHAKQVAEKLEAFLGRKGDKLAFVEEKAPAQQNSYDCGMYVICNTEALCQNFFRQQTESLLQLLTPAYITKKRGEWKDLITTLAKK
In kind it is functional.

The target of data set [12] is T3, Sentrin-specific protease 8. In kind it is functional. The source holds these as a separate data set.
In the next data set the target is Cytochrome P450 2C9 (Homo sapiens, UniProt P11712).
Chain of Cytochrome P450 2C9 (P11712 whole entry): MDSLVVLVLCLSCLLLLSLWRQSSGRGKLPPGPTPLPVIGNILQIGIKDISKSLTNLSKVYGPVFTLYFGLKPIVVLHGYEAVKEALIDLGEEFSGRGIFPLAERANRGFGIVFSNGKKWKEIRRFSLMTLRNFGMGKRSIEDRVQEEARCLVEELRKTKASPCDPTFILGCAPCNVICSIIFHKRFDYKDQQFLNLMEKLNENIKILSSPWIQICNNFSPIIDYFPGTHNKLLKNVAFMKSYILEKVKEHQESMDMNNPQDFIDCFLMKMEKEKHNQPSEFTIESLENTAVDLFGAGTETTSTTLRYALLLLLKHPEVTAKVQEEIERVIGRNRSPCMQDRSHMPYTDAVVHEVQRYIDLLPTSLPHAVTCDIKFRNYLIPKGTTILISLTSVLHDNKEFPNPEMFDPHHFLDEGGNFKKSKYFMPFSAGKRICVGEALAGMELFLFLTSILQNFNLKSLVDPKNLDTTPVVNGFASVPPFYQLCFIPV
The nature of data set [13]: HEp-2 cell cytotoxicity, dose response, cytotoxicity control for RSV inhibitor project, HTS (AID 2410). The conditions noted are these: human respiratory syncytial virus. In kind it is functional.
In a further data set the target is Cytochrome P450 2C19 (Homo sapiens, UniProt P33261). Briefly: Cytochrome panel assay with activity outcomes. Panel member name: p450-cyp2c19 Compounds with AC50 equal or less than 10 uM are considered active. In kind it is functional. To be noted: read-out: AC50.
Chain of Cytochrome P450 2C19 (P33261 whole entry, the tested form may be a part): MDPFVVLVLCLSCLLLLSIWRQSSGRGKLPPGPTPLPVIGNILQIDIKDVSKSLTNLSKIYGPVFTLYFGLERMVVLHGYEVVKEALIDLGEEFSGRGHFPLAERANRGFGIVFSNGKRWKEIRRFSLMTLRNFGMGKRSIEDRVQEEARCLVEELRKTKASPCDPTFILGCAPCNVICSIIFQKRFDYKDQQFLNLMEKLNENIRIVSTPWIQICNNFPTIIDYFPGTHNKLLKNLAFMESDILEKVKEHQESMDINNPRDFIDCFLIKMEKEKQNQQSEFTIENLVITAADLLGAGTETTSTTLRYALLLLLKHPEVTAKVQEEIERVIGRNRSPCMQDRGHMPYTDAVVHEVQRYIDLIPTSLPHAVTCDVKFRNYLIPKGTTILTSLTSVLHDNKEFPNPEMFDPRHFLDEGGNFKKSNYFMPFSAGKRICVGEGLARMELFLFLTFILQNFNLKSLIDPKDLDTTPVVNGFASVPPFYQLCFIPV
Data set [14] addresses T4, Fatty acid synthase (Homo sapiens, UniProt P49327). Nature of the data set: FAS thioesterase domain inhibitors, dose response, biochemical, endpoint fluorescence intensity, uHTS hits (AID 624327).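 Further: fluorescence from hydrolysis of an O-methyl fluorescein acyl ester substrate by the enzyme.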 In kind it is functional.
For data set [15], the target named is T4, Fatty acid synthase. Briefly: FAS thioesterase domain inhibitors, dose response, biochemical, kinetic fluorescence intensity (AID 624326).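 Further: rate of fluorescence rise from hydrolysis of a fluorogenic O-methyl fluorescein ester substrate.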 In kind it is functional.
For data set [16], the target named is T5, Tyrosine-protein phosphatase non-receptor type 11 (Homo sapiens, UniProt Q06124).
T5 sequence (Q06124 whole entry): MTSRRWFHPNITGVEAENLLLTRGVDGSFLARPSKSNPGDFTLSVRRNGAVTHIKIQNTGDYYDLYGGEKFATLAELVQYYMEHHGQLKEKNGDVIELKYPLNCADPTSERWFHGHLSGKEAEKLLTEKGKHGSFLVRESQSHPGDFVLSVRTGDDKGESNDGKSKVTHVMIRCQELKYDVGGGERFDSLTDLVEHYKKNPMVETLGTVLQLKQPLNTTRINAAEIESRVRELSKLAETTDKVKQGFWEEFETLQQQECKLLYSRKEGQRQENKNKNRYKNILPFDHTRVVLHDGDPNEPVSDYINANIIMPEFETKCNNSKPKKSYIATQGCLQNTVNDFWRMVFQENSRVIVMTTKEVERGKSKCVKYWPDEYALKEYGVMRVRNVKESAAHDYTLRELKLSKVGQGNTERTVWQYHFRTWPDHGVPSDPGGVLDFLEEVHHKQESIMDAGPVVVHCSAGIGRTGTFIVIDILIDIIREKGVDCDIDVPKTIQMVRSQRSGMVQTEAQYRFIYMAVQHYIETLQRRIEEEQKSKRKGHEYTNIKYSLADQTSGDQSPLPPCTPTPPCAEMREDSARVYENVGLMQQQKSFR
Nature of the data set: SHP2 phosphatase inhibition, dose response, selectivity assay for STEP inhibitor project, biochemical (AID 602367). In kind it is functional. The conditions noted are these: read-out: IC50_Mean.

Data set [17] has as its target T6, Tyrosine-protein phosphatase non-receptor type 5 (Homo sapiens, UniProt P54829).
T6 sequence (P54829 whole entry): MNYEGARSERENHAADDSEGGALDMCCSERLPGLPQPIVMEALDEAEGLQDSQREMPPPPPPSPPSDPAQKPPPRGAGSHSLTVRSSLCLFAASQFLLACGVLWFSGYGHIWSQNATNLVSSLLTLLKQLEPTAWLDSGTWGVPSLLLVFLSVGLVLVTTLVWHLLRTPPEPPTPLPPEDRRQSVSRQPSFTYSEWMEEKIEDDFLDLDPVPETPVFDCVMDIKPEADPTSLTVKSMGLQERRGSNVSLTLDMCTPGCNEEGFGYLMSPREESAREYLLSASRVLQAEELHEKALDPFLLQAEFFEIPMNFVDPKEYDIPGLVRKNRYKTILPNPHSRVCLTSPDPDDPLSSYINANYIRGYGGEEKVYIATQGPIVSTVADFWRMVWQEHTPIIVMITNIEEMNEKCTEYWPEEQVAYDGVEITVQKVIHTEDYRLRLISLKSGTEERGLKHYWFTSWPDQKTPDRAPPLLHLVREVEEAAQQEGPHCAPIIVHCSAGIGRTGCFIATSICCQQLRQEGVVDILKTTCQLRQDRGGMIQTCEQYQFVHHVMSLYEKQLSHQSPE
Nature of the data set: STEP phosphatase inhibitors, confirmation, biochemical, fluorescence intensity, uHTS hits (AID 602372). In kind it is functional. The conditions noted are these: read-out: IC50_Mean.

In data set [18] the target is Dual specificity protein phosphatase 3 (Homo sapiens, UniProt P51452). Briefly: VHR phosphatase inhibition, dose response, selectivity assay for STEP inhibitor project, biochemical (AID 602374). In kind it is functional. To be noted: read-out: IC50_Mean.
Chain of Dual specificity protein phosphatase 3 (P51452 whole entry): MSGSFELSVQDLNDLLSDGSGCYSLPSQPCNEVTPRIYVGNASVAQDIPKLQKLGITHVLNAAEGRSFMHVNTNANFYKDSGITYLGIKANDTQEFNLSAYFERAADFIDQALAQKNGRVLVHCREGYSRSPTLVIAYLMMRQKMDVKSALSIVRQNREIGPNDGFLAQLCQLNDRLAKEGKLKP

Structures are written as SMILES. Active and inactive are the calls of the source.

A word on the AC50: it is the midpoint of the concentration-response curve, whichever way the signal moves. One may read the CC50 as the concentration giving 50% cytotoxicity.

T4 sequence (P49327 whole entry, the tested form may be a part): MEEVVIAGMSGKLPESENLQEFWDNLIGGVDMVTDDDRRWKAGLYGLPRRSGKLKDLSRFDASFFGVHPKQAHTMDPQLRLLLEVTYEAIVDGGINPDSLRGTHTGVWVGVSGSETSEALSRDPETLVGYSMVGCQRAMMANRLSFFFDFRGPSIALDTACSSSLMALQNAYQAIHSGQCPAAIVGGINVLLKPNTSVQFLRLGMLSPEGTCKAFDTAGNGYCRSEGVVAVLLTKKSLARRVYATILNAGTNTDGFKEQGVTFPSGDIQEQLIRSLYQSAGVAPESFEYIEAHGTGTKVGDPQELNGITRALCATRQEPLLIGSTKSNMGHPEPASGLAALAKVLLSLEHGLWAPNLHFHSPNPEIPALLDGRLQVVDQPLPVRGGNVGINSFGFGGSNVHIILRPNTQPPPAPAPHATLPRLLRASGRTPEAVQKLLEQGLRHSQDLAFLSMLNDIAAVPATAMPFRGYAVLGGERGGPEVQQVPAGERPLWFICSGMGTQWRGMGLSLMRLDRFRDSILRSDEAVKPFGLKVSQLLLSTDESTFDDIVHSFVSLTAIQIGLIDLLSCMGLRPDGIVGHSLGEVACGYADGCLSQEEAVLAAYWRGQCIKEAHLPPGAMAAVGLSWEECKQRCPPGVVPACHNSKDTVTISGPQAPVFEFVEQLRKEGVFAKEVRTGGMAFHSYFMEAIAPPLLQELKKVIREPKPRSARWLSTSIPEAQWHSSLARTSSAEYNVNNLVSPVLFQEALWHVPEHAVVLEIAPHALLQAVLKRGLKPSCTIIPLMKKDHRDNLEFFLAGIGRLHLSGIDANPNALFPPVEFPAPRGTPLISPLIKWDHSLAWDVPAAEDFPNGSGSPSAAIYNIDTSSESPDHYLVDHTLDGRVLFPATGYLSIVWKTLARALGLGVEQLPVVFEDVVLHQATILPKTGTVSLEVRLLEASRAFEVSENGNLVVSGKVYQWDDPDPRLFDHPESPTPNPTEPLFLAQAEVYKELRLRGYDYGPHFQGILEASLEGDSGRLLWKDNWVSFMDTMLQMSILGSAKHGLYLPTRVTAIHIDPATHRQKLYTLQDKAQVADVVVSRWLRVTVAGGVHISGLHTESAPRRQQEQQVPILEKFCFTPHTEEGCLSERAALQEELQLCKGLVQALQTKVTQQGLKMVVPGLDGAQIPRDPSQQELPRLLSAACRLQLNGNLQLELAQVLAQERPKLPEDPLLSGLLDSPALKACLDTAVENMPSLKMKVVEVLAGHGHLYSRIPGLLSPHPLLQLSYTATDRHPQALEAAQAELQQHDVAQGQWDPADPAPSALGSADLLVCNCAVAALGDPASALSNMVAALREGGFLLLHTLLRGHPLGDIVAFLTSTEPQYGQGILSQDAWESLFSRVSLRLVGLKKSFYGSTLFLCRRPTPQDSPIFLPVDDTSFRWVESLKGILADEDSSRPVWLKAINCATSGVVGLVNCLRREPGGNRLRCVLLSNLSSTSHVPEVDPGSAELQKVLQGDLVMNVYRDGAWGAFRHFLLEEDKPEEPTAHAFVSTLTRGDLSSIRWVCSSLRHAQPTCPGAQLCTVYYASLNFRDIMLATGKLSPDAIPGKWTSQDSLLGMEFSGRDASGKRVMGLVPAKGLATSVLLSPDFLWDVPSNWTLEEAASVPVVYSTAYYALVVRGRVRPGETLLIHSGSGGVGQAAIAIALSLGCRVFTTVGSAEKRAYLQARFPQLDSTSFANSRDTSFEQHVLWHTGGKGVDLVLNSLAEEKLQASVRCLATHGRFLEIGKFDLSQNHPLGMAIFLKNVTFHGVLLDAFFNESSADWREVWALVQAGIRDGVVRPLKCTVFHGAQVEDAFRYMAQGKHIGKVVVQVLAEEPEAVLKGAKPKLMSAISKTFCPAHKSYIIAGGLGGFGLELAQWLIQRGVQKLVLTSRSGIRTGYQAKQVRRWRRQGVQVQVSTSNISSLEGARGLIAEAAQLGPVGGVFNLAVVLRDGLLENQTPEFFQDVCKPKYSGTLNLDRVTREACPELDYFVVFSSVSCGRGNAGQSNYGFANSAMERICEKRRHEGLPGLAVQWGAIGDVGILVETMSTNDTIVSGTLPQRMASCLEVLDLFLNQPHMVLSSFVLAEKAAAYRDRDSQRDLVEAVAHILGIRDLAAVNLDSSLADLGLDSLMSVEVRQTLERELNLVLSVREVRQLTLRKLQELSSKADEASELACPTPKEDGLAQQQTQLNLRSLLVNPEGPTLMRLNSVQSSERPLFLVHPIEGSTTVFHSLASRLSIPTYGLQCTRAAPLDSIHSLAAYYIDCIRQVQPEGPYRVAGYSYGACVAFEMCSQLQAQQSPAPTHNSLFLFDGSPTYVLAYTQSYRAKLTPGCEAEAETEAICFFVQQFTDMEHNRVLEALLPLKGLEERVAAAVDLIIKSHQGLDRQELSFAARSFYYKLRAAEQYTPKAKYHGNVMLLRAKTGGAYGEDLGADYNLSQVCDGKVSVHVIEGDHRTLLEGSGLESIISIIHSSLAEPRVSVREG
T2 sequence (P63165 whole entry): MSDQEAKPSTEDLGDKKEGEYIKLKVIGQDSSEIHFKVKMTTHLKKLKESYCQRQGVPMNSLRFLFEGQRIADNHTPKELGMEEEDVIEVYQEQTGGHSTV

`CSc1ccc(NC(=O)NCCCN2CCN(c3ccccc3F)CC2)cc1`: the IC50 on Protein skinhead-1 is > 100 µM (inactive). Also, the AC50 entry on Cytochrome P450 3A4 is reported as “inconclusive”.
With `CCCCCNC(=O)C(c1ccncc1)n1c(=O)c(-c2cc3ccccc3[nH]2)nc2ccccc21` (stereo not drawn), the AC50 in [1] was 2.62 µM (active); in data set [2], 31.9 µM (active); in [3] it was 4.68 µM (active); in data set [4] it was 4 µM (active); in data set [5], 7.8 µM (active).
With `Fc1ccccc1-c1nc(-c2ccncc2)no1`, the IC50 at Protein skinhead-1 is 25.1 µM (active).
Take `O=C(NC1CC1)C1CCN(C2CCN(C(=O)Cc3ccc(F)cc3)CC2)CC1`: the AC50 was 26.8 µM (active) in the data set on Escherichia coli [6] and 50 µM (active) with Escherichia coli [7].
With `CC(=O)c1c(C)[nH]c(C(=O)OCC(=O)c2ccc3c(c2)NC(=O)CO3)c1C`, the IC50 in [8] is > 66.6 µM (inactive); in data set [9], 6.39 µM (active).
As to `O=C(Nc1cc2nn(-c3ccccc3)nc2cc1Cl)c1ccco1`, the IC50 on Protein skinhead-1 was > 100 µM (inactive).
In the case of `C/C=C/c1ccc([C@@H]2[C@@H](CO)N(C(C)=O)[C@@H]2CN(C)C(=O)c2ccccn2)cc1`, the AC50 in [10] is 39.6 µM (active).
Take `C[C@@H]1C=C[C@](Cc2ccccc2)(C(=O)NCC2CC2)N1C(=O)c1ccccc1`: on Protein skinhead-1, the IC50 is > 100 µM (inactive).
Take `Cc1n[nH]c(-c2cccnc2)c1N=NN(C)C`: the AC50 in the data set with Escherichia coli [6] is 0.628 µM (active); in the data set on Escherichia coli [7], 2.15 µM (active).
As to `O=C1Cc2ccccc2C(=O)N1OCc1ccc(Cl)cc1`, the figures for the IC50 in data set [11] and in data set [12] were 11.8 µM (active) and 11 µM (active), respectively.
As to `CN1C(=O)c2cc(NC(=O)Nc3cccc(Cl)c3)ccc2OC[C@H]2O[C@@H](CC(=O)NCCc3ccncc3)CC[C@H]21`, the AC50 in [10] is 31.4 µM (active).
On to `COc1ccc(-c2cc(=O)c3c(C)cc(O)cc3o2)cc1`, for which the IC50 in [8] was > 66.6 µM (inactive); in data set [9], 8.68 µM (active).
Regarding `CCC(C)N1CCC2(CC1)N=c1c3c(O)c4c(O)c(C)c5c(c4c1=N2)C(=O)[C@@](C)(OC=C[C@H](OC)[C@@H](C)[C@@H](OC(C)=O)[C@H](C)[C@H](O)[C@H](C)[C@@H](O)[C@@H](C)C=CC=C(C)C(=O)N3)O5` (stereo partly drawn), in the data set with Escherichia coli [7], the AC50 is 7.88 µM (active).
Take `C=CCOc1c(Br)cc(CNc2ccc(NC(=O)C(C)C)c(OC)c2)cc1OC`: the AC50 in data set [2] was 63.1 µM (active); at Cytochrome P450 2C9, 0.00562 µM (inconclusive).
For `CCn1c2ccc(C)cc2c2nnc(NN)nc21`, the 50% cytotoxic concentration (CC50) in [13] is 32.3 µM (active). In addition, the IC50 in data set [11] is > 100 µM (inactive); in data set [12], 8.84 µM (active); in the data set “cells”, 17.4 µM (active).
As for `O=C(c1ccccc1)N1CCN(c2ccc([N+](=O)[O-])c(NCC3CCCO3)c2)CC1` (stereo not drawn), the AC50 was 105 µM (active) in the data set with Escherichia coli [6] and 40.2 µM (active) in the data set on Escherichia coli [7].
Regarding `CC(C)(C)c1nnc(NC(=O)NS(=O)(=O)c2ccccc2)s1`, the AC50 on Cytochrome P450 2C19 was 39.8 µM (inconclusive); at Cytochrome P450 2C9, 10 µM (inconclusive); in the data set with Escherichia coli [7], 61.5 µM (active).
Regarding `O=C(COc1cc([N+](=O)[O-])cc2cccnc12)NCCC1=CCCCC1`, the IC50 is 1.1 µM (active) at Fatty acid synthase [14] and 0.778 µM (active) at Fatty acid synthase [15].
`COCCCNC(=O)CC1C[C@H](C(=O)N2CCOCC2)[C@@]2(CCC3CCCC3)c3[nH]c4ccc(OC)cc4c3CCN2C1=O` (stereo partly drawn): the values for the IC50 at Fatty acid synthase [14] and at Fatty acid synthase [15] were 11.5 µM (active) and 7.56 µM (active), respectively.
Consider `CC(=O)N1CCC(N(CCN2CCOCC2)C(=S)Nc2ccc(C)cc2)CC1`, for which the figures for the IC50 in [16], in data set [17] and in data set [18] were 17.9 µM (active), > 80 µM (inactive) and 3.44 µM (active), respectively.
Turning to `CCOc1ccc(C(=S)N2CCN(C)CC2)cc1`, the IC50 was 3.9 µM (active) in data set [16], 24.6 µM (inactive) in data set [17] and 1.42 µM (active) in data set [18].
Regarding `CC(NC(=O)Nc1cccc([N+](=O)[O-])c1)c1ccc2c(c1)OCO2` (stereo not drawn), the IC50 at Fatty acid synthase [14] is 2.18 µM (active); at Fatty acid synthase [15], 1.64 µM (active).
The corresponding values for `CCCCCn1c(CN2CCN(c3cccc(Cl)c3)CC2)nc2c1c(=O)n(C)c(=O)n2C` are 3.96 µM (active) and 4.64 µM (active).

The values above are taken from ChEMBL document CHEMBL1201862, “PubChem BioAssay data set” (2004).
